± gives the expanded uncertainty stated by the source.
Details: Liquid, Ebulliometric method (Recirculating still)

| Compound | vapor or sublimation pressure (263.15 K) [kPa] | vapor or sublimation pressure (268.15 K) [kPa] | vapor or sublimation pressure (278.15 K) [kPa] | vapor or sublimation pressure (288.15 K) [kPa] |
| --- | --- | --- | --- | --- |
| FC(F)C(F)F [1,1,2,2-tetrafluoroethane] | 155 ± 10 | 189 ± 10 | 276 ± 10 | 386 ± 10 |
| CCF [fluoroethane] | 311 ± 10 | 372 ± 10 | 517 ± 10 | 700 ± 10 |

Reference: the NIST ThermoML archive (doi:10.1021/je100143k)
